In article PMC7821181, “MS Binding Assays for Glycine Transporter 2 (GlyT2) Employing Org25543 as Reporter Ligand” (Chemmedchem, 2020):
Like-named read-outs stand apart in the source and are kept apart here.

How the values were obtained:
[1] = target: T1, hGlyT2 (Homo sapiens, UniProt Q9Y345); test: GlyT2 MS Binding Assays: saturation experiments with Org25543; settings: mean±SEM, n=3
T1 construct: host or cells: HEK293 cells stably expressing hGlyT2; crude membrane fractions
T1 sequence (Q9Y345 1-797): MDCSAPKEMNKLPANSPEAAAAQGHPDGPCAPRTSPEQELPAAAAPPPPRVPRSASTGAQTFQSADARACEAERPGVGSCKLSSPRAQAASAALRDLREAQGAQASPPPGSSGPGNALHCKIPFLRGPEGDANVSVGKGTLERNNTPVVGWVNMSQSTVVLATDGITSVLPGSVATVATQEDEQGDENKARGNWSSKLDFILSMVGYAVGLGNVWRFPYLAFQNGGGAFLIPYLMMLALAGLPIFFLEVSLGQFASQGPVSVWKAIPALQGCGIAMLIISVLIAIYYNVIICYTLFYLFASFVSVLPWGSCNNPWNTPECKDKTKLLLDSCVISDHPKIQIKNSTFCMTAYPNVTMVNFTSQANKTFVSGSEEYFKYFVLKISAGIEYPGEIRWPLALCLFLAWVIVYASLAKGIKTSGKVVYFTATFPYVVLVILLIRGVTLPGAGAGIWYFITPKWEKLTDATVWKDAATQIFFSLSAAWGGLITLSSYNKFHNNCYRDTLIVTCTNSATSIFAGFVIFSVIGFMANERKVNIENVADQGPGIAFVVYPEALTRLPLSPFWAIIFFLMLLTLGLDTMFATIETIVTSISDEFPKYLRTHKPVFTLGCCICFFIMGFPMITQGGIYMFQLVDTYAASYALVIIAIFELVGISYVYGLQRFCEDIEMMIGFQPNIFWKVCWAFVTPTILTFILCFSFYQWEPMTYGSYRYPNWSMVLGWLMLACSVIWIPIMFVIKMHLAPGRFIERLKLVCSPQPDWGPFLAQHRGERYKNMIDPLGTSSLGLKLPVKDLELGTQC
Experimental: For the further characterization of the binding of Org25543 to GlyT2 saturation experiments were performed. To determine total binding of Org25543 GlyT2 membrane fractions were incubated with the reporter ligand in eight different concentrations (0.4–150 nM) and the samples analyzed after the general workup by LC‐ESI‐MS/MS as described above. Nonspecific binding was obtained from experiments that were completely analogous to the former except that protein subjected to a prior heat‐shock was used. Quantification of Org25543 in total binding samples could be realized down to the lowest nominal concentration level (0.4 nM). For nonspecific binding samples the quantification was possible down to 2 nM nominal marker concentration. For nominal marker concentrations lower than 2 nM the concentrations of Org25543 lay below the LLOQ. As it is generally acknowledged that nonspecific binding is related to nominal marker concentration in a linear fashion, ^[46] data points below this concentration were calculated by extrapolation after linear regression analysis of the data points for nonspecific binding at nominal marker concentrations from 2 to 150 nM.
For preparation of GlyT2 membrane preparations HEK293 cells, stably expressing the hGlyT2 with a confluence ≥90 %, were used (kindly provided by AbbVie (Wiesbaden, Germany)). […]

[2] = system: GlyT2; set-up: method as in PMID 15964938; settings: ref 27; read-out: IC50 in FLIPR membrane potential assay; cited from earlier work
[3] = system: GlyT2; settings: ref 23; read-out: IC50 in [3H]glycine uptake assay; cited from earlier work

**Q.** With `COc1cc(C(=O)NCC2(N(C)C)CCCC2)cc(OC)c1OCc1ccccc1` [Org25543, N‐[[1‐(dimethylamino)cyclopentyl]methyl]‐3,5‐dimethoxy‐4‐(phenylmethoxy)benzamide] as the molecule, how does the “maximum density of binding sites (B max)” value ([1]; HEK293 hGlyT2 membrane preparation) read?
**A.** 26.15±1.03 pmol (mg protein)^−1

**Q.** What about the Kd ([1]; Org25543 0.4–150 nM, read-out: K d (saturation experiments)) of the same molecule?
**A.** 7.45 nM

**Q.** And the IC50 [2]?
**A.** 31 ± 6 nM

**Q.** And the IC50 [3]?
**A.** 16 ± 1.9 nM
